Peptide text beside a SMILES is read from it.
Each compound was assayed against Glypican-3 (Homo sapiens, UniProt P51654) (assay: Binding affinity to GPC3 (unknown origin) assessed as dissociation constant by fluorescence polarization assay).
Glypican-3, sequence (P51654 25-358 limits assumed): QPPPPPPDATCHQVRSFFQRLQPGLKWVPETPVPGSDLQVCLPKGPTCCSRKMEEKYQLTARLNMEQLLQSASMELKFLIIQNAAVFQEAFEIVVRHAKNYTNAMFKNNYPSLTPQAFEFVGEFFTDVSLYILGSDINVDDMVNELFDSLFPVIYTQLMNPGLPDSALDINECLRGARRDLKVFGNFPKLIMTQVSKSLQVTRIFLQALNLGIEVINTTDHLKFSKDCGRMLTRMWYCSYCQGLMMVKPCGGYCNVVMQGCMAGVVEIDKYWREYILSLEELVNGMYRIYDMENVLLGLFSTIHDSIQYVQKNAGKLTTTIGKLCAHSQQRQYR
Glypican-3, sequence (P51654 359-554 limits assumed): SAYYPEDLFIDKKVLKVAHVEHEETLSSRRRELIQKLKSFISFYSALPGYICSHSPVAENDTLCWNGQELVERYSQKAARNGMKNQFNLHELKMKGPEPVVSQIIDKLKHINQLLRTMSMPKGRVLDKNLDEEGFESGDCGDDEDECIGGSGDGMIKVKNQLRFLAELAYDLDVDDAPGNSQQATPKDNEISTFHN

Kd, 300 nM:
C=Cc1c(C)c2cc3nc(c(CC(=O)O)c4[nH]c(cc5nc(cc1[nH]2)C(C)=C5CC)c(C)c4C(=O)NCCCC(=O)N[C@@H](CCCCN)C(=O)N[C@@H](CCCCN)C(=O)N[C@@H](CCCCN)C(=O)N[C@@H](CCCNC(=N)N)C(=O)N[C@@H](CC(C)C)C(=O)N[C@@H](CC(N)=O)C(=O)N[C@H](C(=O)NCC(=O)NCC(=O)N[C@H](C(=O)N[C@@H](Cc1ccc(O)cc1)C(=O)N[C@@H](Cc1ccccc1)C(=O)N[C@@H](CC(C)C)C(=O)N[C@H](C(=O)N[C@H](C(=O)N[C@@H](CCCNC(=N)N)C(=O)N[C@@H](CCC(N)=O)C(=O)O)[C@@H](C)O)[C@@H](C)O)[C@@H](C)O)C(C)C)[C@@H](CCC(=O)O)[C@@H]3C (HELM PEPTIDE1{[C=Cc1c(C)c2cc3nc(c(CC(=O)O)c4[nH]c(cc5nc(cc1[nH]2)C(C)=C5CC)c(C)c4C(=O)[*:2])[C@@H](CCC(=O)O)[C@@H]3C].[O=C(CCCN[*:1])[*:2]].K.K.K.R.L.N.V.G.G.T.Y.F.L.T.T.R.Q}$$$$V2.0)
C=Cc1c(C)c2cc3nc(c(CC(=O)O)c4[nH]c(cc5nc(cc1[nH]2)C(C)=C5CC)c(C)c4C(=O)NCCCC(=O)N[C@@H](CCCNC(=N)N)C(=O)N[C@@H](CC(C)C)C(=O)N[C@@H](CC(N)=O)C(=O)N[C@H](C(=O)NCC(=O)NCC(=O)N[C@H](C(=O)N[C@@H](Cc1ccc(O)cc1)C(=O)N[C@@H](Cc1ccccc1)C(=O)N[C@@H](CC(C)C)C(=O)N[C@H](C(=O)N[C@H](C(=O)N[C@@H](CCCNC(=N)N)C(=O)N[C@@H](CCC(N)=O)C(=O)O)[C@@H](C)O)[C@@H](C)O)[C@@H](C)O)C(C)C)[C@@H](CCC(=O)O)[C@@H]3C (HELM PEPTIDE1{[C=Cc1c(C)c2cc3nc(c(CC(=O)O)c4[nH]c(cc5nc(cc1[nH]2)C(C)=C5CC)c(C)c4C(=O)[*:2])[C@@H](CCC(=O)O)[C@@H]3C].[O=C(CCCN[*:1])[*:2]].R.L.N.V.G.G.T.Y.F.L.T.T.R.Q}$$$$V2.0)
C=Cc1c(C)c2cc3nc(c(CC(=O)O)c4[nH]c(cc5nc(cc1[nH]2)C(C)=C5CC)c(C)c4C(=O)NCCCC(=O)N[C@@H](CC(=O)O)C(=O)N[C@@H](Cc1ccc(O)cc1)C(=O)N[C@@H](CCC(=O)O)C(=O)N[C@@H](CCSC)C(=O)N[C@@H](Cc1cnc[nH]1)C(=O)N[C@@H](CC(C)C)C(=O)N[C@@H](Cc1c[nH]c2ccccc12)C(=O)N[C@@H](Cc1c[nH]c2ccccc12)C(=O)NCC(=O)N[C@H](C(=O)N[C@@H](CCC(=O)O)C(=O)N[C@@H](CC(C)C)C(=O)O)[C@@H](C)O)[C@@H](CCC(=O)O)[C@@H]3C (HELM PEPTIDE1{[C=Cc1c(C)c2cc3nc(c(CC(=O)O)c4[nH]c(cc5nc(cc1[nH]2)C(C)=C5CC)c(C)c4C(=O)[*:2])[C@@H](CCC(=O)O)[C@@H]3C].[O=C(CCCN[*:1])[*:2]].D.Y.E.M.H.L.W.W.G.T.E.L}$$$$V2.0)

From BindingDB's records for PubMed 38118394 (Second Military Medical University (Naval Medical …)
